One experiment deals with HepG2 cells. The experiment in a line: Cellular uptake assay of AF488-labeled antibody (HepG2). As to conditions: HepG2 cells. It is filed as cell-based. As for the experimental part: The cellular uptake assay is designed to measure compound-mediated cellular uptake of fluorescently labeled antibody following ternary complex formation with the ASGPR receptor and endocytosis of the entire complex into cells.
Human IgG (Sigma-Aldrich, 14506) was covalently labeled with Alexa Fluor 488 using the Alexa Fluor™ 488 Protein Labeling Kit (Thermo Fisher, A10235) following the manufacturer's instructions. HepG2 cells were plated in DMEM supplemented with 10% FBS at 5,000 cells per well in a 96-well microtiter plate and incubated for approximately 18 hours at 37° C./5% CO2. For studies using human IgG, 100 nM AF488-labeled human IgG antibodies and serial dilutions of IgG-based degrader (0.1% DMSO final concentration) were added to the cells and the mixture was incubated at 37° C. for 6 hours. For studies using DNP, 100 nM AF488-labeled DNP antibodies and serial dilutions of DNP-based degrader (0.1% DMSO final concentration) were added to the cells and the mixture was incubated at 37° C. for 6 hours. HepG2 cells were fixed in 100% methanol at −20° C. for 20 min, washed 3× with PBS, then stained with DAPI (Thermo, Cat #H3570). HepG2 cells were imaged for DAPI and Alexa Fluor 488 using the Operetta CLS, high-content analysis system (PerkinElmer). Data is presented as the ratio of the number of cells positive for hIgG or DNP (AF-488 fluorescence) over the total cell number (measured by DAPI).

For experiment [1], the target named is T1, ASGPR receptor on the cell surface (HepG2 cells) (Homo sapiens, UniProt P07306).
T1 construct: host or cells: HepG2
T1 sequence (P07306 1-291): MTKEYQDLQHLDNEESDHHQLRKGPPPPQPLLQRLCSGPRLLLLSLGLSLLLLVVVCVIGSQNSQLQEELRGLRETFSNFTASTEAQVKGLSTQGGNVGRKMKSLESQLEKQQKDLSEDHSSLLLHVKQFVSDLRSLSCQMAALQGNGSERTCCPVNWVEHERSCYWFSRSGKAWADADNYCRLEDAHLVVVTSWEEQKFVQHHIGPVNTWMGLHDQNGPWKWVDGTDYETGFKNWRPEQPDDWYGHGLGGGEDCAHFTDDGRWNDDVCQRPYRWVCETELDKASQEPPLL
T1 sequence (P07307 1-311 partner): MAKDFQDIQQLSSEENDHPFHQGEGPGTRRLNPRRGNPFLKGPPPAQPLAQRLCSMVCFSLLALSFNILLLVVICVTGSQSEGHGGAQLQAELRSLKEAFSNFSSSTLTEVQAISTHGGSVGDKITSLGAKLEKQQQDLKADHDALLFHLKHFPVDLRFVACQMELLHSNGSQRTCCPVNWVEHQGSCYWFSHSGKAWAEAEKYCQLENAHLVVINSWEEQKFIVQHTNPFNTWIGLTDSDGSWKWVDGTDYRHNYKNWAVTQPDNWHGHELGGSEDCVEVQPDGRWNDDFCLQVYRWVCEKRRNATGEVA
The experiment in a line: Ternary complex formation assay (flow cytometry, HepG2). It is filed as cell-based. The text has this:
The ternary complex formation assay is designed to identify the concentration of Degrader required to form a complex between the degrader, a constant concentration of fluorescently-labeled antibody and the ASGPR receptor on the cell surface. The peak mean fluorescence intensity (MFI) occurs at the optimal degrader concentration for ternary complex formation. Sub-optimal concentrations of degrader (too much or too little) results in fewer complexes formed and a reduced […].
Human IgG (Sigma-Aldrich, 14506) was covalently labeled with Alexa Fluor 488 using the Alexa Fluor™ 488 Protein Labeling Kit (Thermo Fisher, A10235) following the manufacturer's instructions. HepG2 cells (ATCC, HIB-8065) were cultured to about 70% confluence and harvested by trypsinization. Single cell suspensions of HepG2 cells were plated in 96 well plates at 1×10^5 cells/well in cell culture media (DMEM supplemented with […]) and placed at 4° C. For studies using human IgG, cells were incubated with 100 nM AF488-labeled anti-human IgG and serial dilutions of IgG-based degrader for 1 hour at 4° C. For studies using DNP, cells were incubated with 100 nM AF488-labeled polyclonal rabbit anti-dinitrophenyl (DNP) antibodies (ThermoFisher) and serial dilutions of DNP-based degrader for 1 hour at 4° C. After washing once with ice-cold PBS containing 0.1% BSA and 0.1% sodium azide, cells were resuspended in 150 uL PBS+0.1% BSA and cell-associated AF488 fluorescence was measured by flow cytometry using the iQue® Screener PLUS Flow Cytometer (IntelliCyt).

Setting [2] is: 100 nM AF488-labeled antibody, 37° C. for 6 hours, class symbols, read-out: Uptake Assay EC50.

Each structure is given as a SMILES string. Where two headings read alike, the source gives them in different places. Some results are limits rather than exact numbers.

Turning to `CC(C)C[C@@H]1NC(=O)[C@H](Cc2c[nH]cn2)NC(=O)[C@H](Cc2c[nH]c3ccccc23)NC(=O)[C@H](C)NC(=O)[C@@H]2CSSC[C@H](NC(=O)[C@H](Cc3c[nH]c4ccccc34)NC(=O)[C@H](C(C)C)NC(=O)[C@H](CC(C)C)NC(=O)[C@H](CCC(=O)O)NC(=O)CNC1=O)C(=O)N[C@@H]([C@@H](C)O)C(=O)N1CCC[C@@H]1C(=O)N1C[C@@H](NC(=O)CCOCCOCCOCCNC(=O)CCCc3cn(CCCCCC(=O)NC(COCCC(=O)NCCOCCOCCOCCOC[C@H]4OC[C@H](Nc5nccc(C(F)(F)F)n5)[C@@H](O)[C@H]4O)COCCC(=O)NCCOCCOCCOCCOC[C@H]4OC[C@H](Nc5nccc(C(F)(F)F)n5)[C@@H](O)[C@H]4O)nn3)C[C@H]1C(=O)N[C@@H](CC(=O)O)C(=O)N2` [Compound 11], the EC50 (in the experiment with HepG2 cells (setting [2]); in experiment [1]) was below 100 nM in each case.
In the case of `CC(C)C[C@@H]1NC(=O)[C@H](Cc2c[nH]cn2)NC(=O)[C@H](Cc2c[nH]c3ccccc23)NC(=O)[C@H](C)NC(=O)[C@@H]2CSSC[C@H](NC(=O)[C@H](Cc3c[nH]c4ccccc34)NC(=O)[C@H](C(C)C)NC(=O)[C@H](CC(C)C)NC(=O)[C@H](CCC(=O)O)NC(=O)CNC1=O)C(=O)N[C@@H]([C@@H](C)O)C(=O)N1CCC[C@@H]1C(=O)N1C[C@@H](NC(=O)CCOCCOCCOCCNC(=O)CCCc3cn(C[C@@]45CO[C@@H](O4)[C@H](Nc4nc(Cl)ns4)[C@@H](O)[C@H]5O)nn3)C[C@H]1C(=O)N[C@@H](CC(=O)O)C(=O)N2` [Compound 5], the EC50 (with HepG2 cells (setting [2]); in experiment [1]) was below 100 nM throughout.
As to `CC(C)C[C@@H]1NC(=O)[C@H](Cc2c[nH]cn2)NC(=O)[C@H](Cc2c[nH]c3ccccc23)NC(=O)[C@H](C)NC(=O)[C@@H]2CSSC[C@H](NC(=O)[C@H](Cc3c[nH]c4ccccc34)NC(=O)[C@H](C(C)C)NC(=O)[C@H](CC(C)C)NC(=O)[C@H](CCC(=O)O)NC(=O)CNC1=O)C(=O)N[C@@H]([C@@H](C)O)C(=O)N1CCC[C@@H]1C(=O)N1C[C@H](NC(=O)c3ccc(N4CCC(CN5CCN(C[C@H]6OC[C@H](Nc7cncc(C(F)(F)F)n7)[C@@H](O)[C@H]6O)CC5)CC4)cc3)C[C@H]1C(=O)N[C@@H](CC(=O)O)C(=O)N2` [Compound 93], the EC50 (in the experiment on HepG2 cells (read-out: Uptake EC50); in experiment [1]) was below 100 nM each time.
Turning to `CC(C)C[C@@H]1NC(=O)[C@H](Cc2c[nH]cn2)NC(=O)[C@H](Cc2c[nH]c3ccccc23)NC(=O)[C@H](C)NC(=O)[C@@H]2CSSC[C@H](NC(=O)[C@H](Cc3c[nH]c4ccccc34)NC(=O)[C@H](C(C)C)NC(=O)[C@H](CC(C)C)NC(=O)[C@H](CCC(=O)O)NC(=O)CNC1=O)C(=O)N[C@@H]([C@@H](C)O)C(=O)N1CCC[C@@H]1C(=O)N1C[C@@H](NC(=O)CNC(COCCC(=O)NCCOCCOCCOCCOC[C@H]3OC[C@H](Nc4nccc(C(F)(F)F)n4)[C@@H](O)[C@H]3O)COCCC(=O)NCCOCCOCCOCCOC[C@H]3OC[C@H](Nc4nccc(C(F)(F)F)n4)[C@@H](O)[C@H]3O)C[C@H]1C(=O)N[C@@H](CC(=O)O)C(=O)N2` [Compound 50], the EC50 (in the experiment on HepG2 cells (setting [2]); in experiment [1]) was below 100 nM throughout.
For `CC(C)C[C@@H]1NC(=O)[C@H](Cc2c[nH]cn2)NC(=O)[C@H](Cc2c[nH]c3ccccc23)NC(=O)[C@H](C)NC(=O)[C@@H]2CSSC[C@H](NC(=O)[C@H](Cc3c[nH]c4ccccc34)NC(=O)[C@H](C(C)C)NC(=O)[C@H](CC(C)C)NC(=O)[C@H](CCC(=O)O)NC(=O)CNC1=O)C(=O)N[C@@H]([C@@H](C)O)C(=O)N1CCC[C@@H]1C(=O)N1C[C@@H](NC(=O)CCOCCOCCOCCOCCNC(=O)CCCc3cn(CCCCCC(=O)NC(COCCC(=O)NCCOCCOCCOCCO[C@@H]4O[C@H](CO)[C@H](O)[C@H](O)[C@H]4Nc4cncc(C(F)(F)F)n4)COCCC(=O)NCCOCCOCCOCCO[C@@H]4O[C@H](CO)[C@H](O)[C@H](O)[C@H]4Nc4cncc(C(F)(F)F)n4)nn3)C[C@H]1C(=O)N[C@@H](CC(=O)O)C(=O)N2` [Compound 82], the EC50 (in the experiment on HepG2 cells (read-out: Uptake EC50); in experiment [1]) was below 100 nM each time.
In the case of `CC(C)C[C@@H]1NC(=O)[C@H](Cc2c[nH]cn2)NC(=O)[C@H](Cc2c[nH]c3ccccc23)NC(=O)[C@H](C)NC(=O)[C@@H](NC(=O)[C@H](CC(=O)O)NC(=O)CCOCCOCCOCCOCCNC(=O)CCCc2cn(CCCCCC(=O)NC(COCCC(=O)NCCOCCOCCOCCO[C@@H]3O[C@H](CO)[C@H](O)[C@H](O)[C@H]3Nc3cncc(C(F)(F)F)n3)COCCC(=O)NCCOCCOCCOCCO[C@@H]3O[C@H](CO)[C@H](O)[C@H](O)[C@H]3Nc3cncc(C(F)(F)F)n3)nn2)CSSC[C@@H](C(=O)N[C@H](C(N)=O)[C@@H](C)O)NC(=O)[C@H](Cc2c[nH]c3ccccc23)NC(=O)[C@H](C(C)C)NC(=O)[C@H](CC(C)C)NC(=O)[C@H](CCC(=O)O)NC(=O)CNC1=O` [Compound 89], the EC50 in the experiment on HepG2 cells (read-out: Uptake EC50) was below 100 nM; in experiment [1] (HepG2 cells, ternary complex formation, read-out: TCF EC50), below 100 nM.
With `CC(C)C[C@@H]1NC(=O)[C@H](Cc2c[nH]cn2)NC(=O)[C@H](Cc2c[nH]c3ccccc23)NC(=O)[C@H](C)NC(=O)[C@@H]2CSSC[C@H](NC(=O)[C@H](Cc3c[nH]c4ccccc34)NC(=O)[C@H](C(C)C)NC(=O)[C@H](CC(C)C)NC(=O)[C@H](CCC(=O)O)NC(=O)CNC1=O)C(=O)N[C@@H]([C@@H](C)O)C(=O)N1CCC[C@@H]1C(=O)N1C[C@@H](NC(=O)COCC(=O)NC(COCCC(=O)NCCOCCOCCOCCOC[C@H]3OC[C@H](Nc4nccc(C(F)(F)F)n4)[C@@H](O)[C@H]3O)COCCC(=O)NCCOCCOCCOCCOC[C@H]3OC[C@H](Nc4nccc(C(F)(F)F)n4)[C@@H](O)[C@H]3O)C[C@H]1C(=O)N[C@@H](CC(=O)O)C(=O)N2` [Compound 46], the EC50 (with HepG2 cells (setting [2]); in experiment [1]) was below 100 nM throughout.
In the case of `CC(C)C[C@@H]1NC(=O)[C@H](Cc2cnc[nH]2)NC(=O)[C@H](Cc2c[nH]c3ccccc23)NC(=O)[C@H](C)NC(=O)[C@@H](NC(=O)[C@@H](N)CC(=O)O)CSSC[C@@H](C(=O)N[C@H](C(N)=O)[C@@H](C)O)NC(=O)[C@H](Cc2c[nH]c3ccccc23)NC(=O)[C@H](C(C)C)NC(=O)[C@H](CC(C)C)NC(=O)[C@H](CCC(=O)NCCOCCOCCOCCOCCNC(=O)CCCc2cn(CCCCCC(=O)NC(COCCC(=O)NCCOCCOCCOCCOC[C@H]3OC[C@H](Nc4nccc(C(F)(F)F)n4)[C@@H](O)[C@H]3O)COCCC(=O)NCCOCCOCCOCCOC[C@H]3OC[C@H](Nc4nccc(C(F)(F)F)n4)[C@@H](O)[C@H]3O)nn2)NC(=O)CNC1=O` [Compound 2], the results for the EC50 (in the experiment with HepG2 cells (setting [2]); in experiment [1]) were 100 to 500 nM and below 100 nM, respectively.
Regarding `CC(C)C[C@@H]1NC(=O)[C@H](Cc2cnc[nH]2)NC(=O)[C@H](Cc2c[nH]c3ccccc23)NC(=O)[C@H](C)NC(=O)[C@@H]2CSSC[C@H](NC(=O)[C@H](Cc3c[nH]c4ccccc34)NC(=O)[C@H](C(C)C)NC(=O)[C@H](CC(C)C)NC(=O)[C@H](CCC(=O)O)NC(=O)CNC1=O)C(=O)N[C@@H]([C@@H](C)O)C(=O)N1CCC[C@@H]1C(=O)N1C[C@@H](NC(=O)COCCOCC(=O)NC(COCCC(=O)NCCOCCOCCOCCOC[C@H]3OC[C@H](Nc4nccc(C(F)(F)F)n4)[C@@H](O)[C@H]3O)COCCC(=O)NCCOCCOCCOCCOC[C@H]3OC[C@H](Nc4nccc(C(F)(F)F)n4)[C@@H](O)[C@H]3O)C[C@H]1C(=O)N[C@@H](CC(=O)O)C(=O)N2` [Compound 47], the EC50 with HepG2 cells (setting [2]) was below 100 nM; in experiment [1] (HepG2 cells, 100 nM AF488-labeled antibody, 1 hour at 4° C., class symbols, read-out: Ternary Complex EC50) it was below 100 nM.

Values taken from patent US12091402B2 (Avilar Therapeutics, Inc., priority 2021, dated 2024).
